{"source": "patent US20250215039A1", "about": "“NUCLEOSIDES FOR TREATING CANCER” (PRIMEFOUR THERAPEUTICS, INC., priority 2022, published 2025)", "system": "cancer cell lines", "experiment": "Cancer cell proliferation activity (CellTiterGlo, 72 h)", "assay_type": "cell-based", "details": "72 h, 72 h, read-out: IC50 cell proliferation", "how_it_was_run": "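Readout is CellTiterGlo luminescence after 72 h compound exposure (0.1% DMSO final), started one day post-seeding, at 37 °C.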", "note": "pIC50: −log10 of the molar value. Like-named read-outs stand apart in the source and are kept apart here.", "data": [{"compound": "Nc1nc(F)nc2c1ncn2[C@H]1C[C@H](O)[C@@H](CO)O1", "note": "[compound 171, (2R,3S,5R)-5-(6-amino-2-fluoro-9H-purin-9-yl)-2-(hydroxymethyl)tetrahydrofuran-3-ol]", "values": [{"measurement": "pIC50", "setting": "5637 (bladder)", "result": 6.02}, {"measurement": "pIC50", "setting": "CLS439 (bladder)", "result": 5.58}, {"measurement": "pIC50", "setting": "HS729 (muscle)", "result": 6.36}, {"measurement": "pIC50", "setting": "J82 (bladder)", "result": 5.74}, {"measurement": "pIC50", "setting": "JAR (placenta)", "result": 5.80}, {"measurement": "pIC50", "setting": "MT3 (breast)", "result": 6.64}, {"measurement": "pIC50", "setting": "PANCI (pancreas)", "result": 5.30}, {"measurement": "pIC50", "setting": "PC3 (prostate)", "result": 6.55}, {"measurement": "pIC50", "setting": "RD (muscle)", "result": 6.02}, {"measurement": "pIC50", "setting": "T24 (bladder)", "result": 6.25}, {"measurement": "pIC50", "setting": "Homo sapiens, 22Rv1, 72 h, 22RV1 (prostate)", "result": 5.54}, {"measurement": "pIC50", "setting": "Homo sapiens, 786-0, 72 h, 786O (kidney)", "result": 5.80}, {"measurement": "pIC50", "setting": "Homo sapiens, A204, 72 h, A204 (muscle)", "result": 6.72}, {"measurement": "pIC50", "setting": "Homo sapiens, A549, 72 h, A549 (lung)", "result": 5.88}, {"measurement": "pIC50", "setting": "Homo sapiens, A673, 72 h, A673 (bone)", "result": 5.60}, {"measurement": "pIC50", "setting": "Homo sapiens, A2780, 72 h, A2780 (ovary)", "result": 5.78}, {"measurement": "pIC50", "setting": "Homo sapiens, A-375, 72 h, A375 (skin)", "result": 6.24}, {"measurement": "pIC50", "setting": "Homo sapiens, A-431, 72 h, A431 (skin)", "result": 5.91}, {"measurement": "pIC50", "setting": "Homo sapiens, ACHN, ACHN (kidney)", "result": 5.98}, {"measurement": "pIC50", "setting": "Homo sapiens, ASPC1, 72 h, ASPC1 (pancreas)", "result": 6.49}, {"measurement": "pIC50", "setting": "Homo sapiens, BT-20, 72 h, BT20 (breast)", "result": 5.67}, {"measurement": "pIC50", "setting": "Homo sapiens, BXPC-3, 72 h, BXPC3 (pancreas)", "result": 6.37}, {"measurement": "pIC50", "setting": "Homo sapiens, C-33-A, C33A (endometrial)", "result": 6.39}, {"measurement": "pIC50", "setting": "Homo sapiens, CAKI-1, 72 h, CAKI1 (kidney)", "result": 6.89}, {"measurement": "pIC50", "setting": "Homo sapiens, COLO 205, 72 h, COLO205 (colon)", "result": 6.38}, {"measurement": "pIC50", "setting": "Homo sapiens, COLO-678, 72 h, COLO678 (colon)", "result": 6.20}, {"measurement": "pIC50", "setting": "Homo sapiens, Ca-Ski, CASKI (endometrial)", "result": 6.00}, {"measurement": "pIC50", "setting": "Homo sapiens, Caco-2, 72 h, CACO2 (colon)", "result": 5.45}, {"measurement": "pIC50", "setting": "Homo sapiens, Calu-6, 72 h, CALU6 (lung)", "result": 6.40}, {"measurement": "pIC50", "setting": "Homo sapiens, DLD-1, 72 h, DLD1 (colon)", "result": 5.99}, {"measurement": "pIC50", "setting": "Homo sapiens, DU-145, 72 h, DU145 (prostate)", "result": 6.47}, {"measurement": "pIC50", "setting": "Homo sapiens, EFO-21, 72 h, EFO21 (ovary)", "result": 6.34}, {"measurement": "pIC50", "setting": "Homo sapiens, EJ-28, 72 h, EJ28 (bladder)", "result": 5.97}, {"measurement": "pIC50", "setting": "Homo sapiens, Granta-519, 72 h, GRANTA-519 (hematological)", "result": 6.17}, {"measurement": "pIC50", "setting": "Homo sapiens, HCT-15, 72 h, HCT15 (colon)", "result": 5.70}, {"measurement": "pIC50", "setting": "Homo sapiens, HCT-116, 72 h, HCT116 (colon)", "result": 5.99}, {"measurement": "pIC50", "setting": "Homo sapiens, HEK293, 72 h, HEK293 (kidney)", "result": 5.44}, {"measurement": "pIC50", "setting": "Homo sapiens, HL-60, 72 h, HL-60 (hematological)", "result": 6.64}, {"measurement": "pIC50", "setting": "Homo sapiens, HT-29, 72 h, HT29 (colon)", "result": 6.15}, {"measurement": "pIC50", "setting": "Homo sapiens, HT-1080, 72 h, HT1080 (connective tissue)", "result": 5.55}, {"measurement": "pIC50", "setting": "Homo sapiens, HeLa, HELA (endometrial)", "result": 6.51}, {"measurement": "pIC50", "setting": "Homo sapiens, HepG2, 72 h, HEPG2 (liver)", "result": 5.56}, {"measurement": "pIC50", "setting": "Homo sapiens, Hs-578T, HS578T (breast)", "result": 5.79}, {"measurement": "pIC50", "setting": "Homo sapiens, IGROV-1, 72 h, IGROV1 (ovary)", "result": 5.89}, {"measurement": "pIC50", "setting": "Homo sapiens, IMR-90, 72 h, IMR90 (lung)", "result": 6.27}, {"measurement": "pIC50", "setting": "Homo sapiens, JEG-3, 72 h, JEG3 (placenta)", "result": 5.59}, {"measurement": "pIC50", "setting": "Homo sapiens, JIMT-1, 72 h, JIMT1 (breast)", "result": 6.74}, {"measurement": "pIC50", "setting": "Homo sapiens, K562, 72 h, K-562 (hematological)", "result": 5.25}, {"measurement": "pIC50", "setting": "Homo sapiens, Kasumi 1, 72 h, KASUMI-1 (hematological)", "result": 7.22}, {"measurement": "pIC50", "setting": "Homo sapiens, L-363, 72 h, L-363 (hematological)", "result": 6.04}, {"measurement": "pIC50", "setting": "Homo sapiens, LoVo, LOVO (colon)", "result": 6.36}, {"measurement": "pIC50", "setting": "Homo sapiens, MCF7, 72 h, MCF7 (breast)", "result": 5.51}, {"measurement": "pIC50", "setting": "Homo sapiens, MDA-MB-231, 72 h, MDAMB231 (breast)", "result": 6.80}, {"measurement": "pIC50", "setting": "Homo sapiens, MDA-MB-435, 72 h, MDAMB435 (skin)", "result": 5.61}, {"measurement": "pIC50", "setting": "Homo sapiens, MDA-MB-436, 72 h, MDAMB436 (breast)", "result": 6.21}, {"measurement": "pIC50", "setting": "Homo sapiens, MDA-MB-468, 72 h, MDAMB468 (breast)", "result": 5.84}, {"measurement": "pIC50", "setting": "Homo sapiens, MG-63, 72 h, MG63 (bone)", "result": 5.79}, {"measurement": "pIC50", "setting": "Homo sapiens, MHH-ES-1, 72 h, MHHES1 (bone)", "result": 6.34}, {"measurement": "pIC50", "setting": "Homo sapiens, MIA PaCa-2, 72 h, MIAPACA2 (pancreas)", "result": 5.53}, {"measurement": "pIC50", "setting": "Homo sapiens, MINO, MINO (hematological)", "result": 7.40}, {"measurement": "pIC50", "setting": "Homo sapiens, MV4-11, 72 h, MV4-11 (hematological)", "result": 6.57}, {"measurement": "pIC50", "setting": "Homo sapiens, NCI-H23, 72 h, NCI-H23 (lung)", "result": 5.69}, {"measurement": "pIC50", "setting": "Homo sapiens, NCI-H82, 72 h, NCIH82 (lung)", "result": 5.80}, {"measurement": "pIC50", "setting": "Homo sapiens, NCI-H292, 72 h, NCIH292 (lung)", "result": 5.63}, {"measurement": "pIC50", "setting": "Homo sapiens, NCI-H460, 72 h, NCIH460 (lung)", "result": 5.71}, {"measurement": "pIC50", "setting": "Homo sapiens, OVCAR-3, 72 h, OVCAR3 (ovary)", "result": 6.46}, {"measurement": "pIC50", "setting": "Homo sapiens, OVCAR-4, 72 h, OVCAR4 (ovary)", "result": 5.73}, {"measurement": "pIC50", "setting": "Homo sapiens, PLC-PRF-5, 72 h, PLCPRF5 (liver)", "result": 5.55}, {"measurement": "pIC50", "setting": "Homo sapiens, Panc1005, 72 h, PANC1005 (pancreas)", "result": 6.18}, {"measurement": "pIC50", "setting": "Homo sapiens, Ramos, RAMOS (hematological)", "result": 6.38}, {"measurement": "pIC50", "setting": "Homo sapiens, SAOS-2, 72 h, SAOS2 (bone)", "result": 6.96}, {"measurement": "pIC50", "setting": "Homo sapiens, SF-268, 72 h, SF268 (brain)", "result": 5.52}, {"measurement": "pIC50", "setting": "Homo sapiens, SF-295, 72 h, SF295 (brain)", "result": 5.45}, {"measurement": "pIC50", "setting": "Homo sapiens, SK-BR-3, 72 h, SKBR3 (breast)", "result": 6.85}, {"measurement": "pIC50", "setting": "Homo sapiens, SK-HEP1, 72 h, SKHEP1 (liver)", "result": 6.55}, {"measurement": "pIC50", "setting": "Homo sapiens, SK-LMS-1, 72 h, SKLMS1 (uterus)", "result": 5.52}, {"measurement": "pIC50", "setting": "Homo sapiens, SK-MEL-5, 72 h, SKMEL5 (skin; SKMELS [sic] in Table 9E)", "result": 5.71}, {"measurement": "pIC50", "setting": "Homo sapiens, SK-MEL-28, 72 h, SKMEL28 (skin)", "result": 6.01}, {"measurement": "pIC50", "setting": "Homo sapiens, SK-N-AS, SKNAS (brain)", "result": 5.59}, {"measurement": "pIC50", "setting": "Homo sapiens, SK-N-SH, SKNSH (brain)", "result": 5.65}, {"measurement": "pIC50", "setting": "Homo sapiens, SK-OV-3, 72 h, SKOV3 (ovary)", "result": 6.29}, {"measurement": "pIC50", "setting": "Homo sapiens, SNB-75, 72 h, SNB75 (brain)", "result": 5.83}, {"measurement": "pIC50", "setting": "Homo sapiens, SU-DHL10, 72 h, SU-DHL-10 (hematological)", "result": 6.14}, {"measurement": "pIC50", "setting": "Homo sapiens, SU-DHL-6, 72 h, SU-DHL-6 (hematological)", "result": 6.01}, {"measurement": "pIC50", "setting": "Homo sapiens, SW-620, 72 h, SW620 (colon)", "result": 6.17}, {"measurement": "pIC50", "setting": "Homo sapiens, TE-671, 72 h, TE671 (muscle)", "result": 6.11}, {"measurement": "pIC50", "setting": "Homo sapiens, THP-1, 72 h, THP-1 (hematological)", "result": 6.89}, {"measurement": "pIC50", "setting": "Homo sapiens, U2OS, U20S (bone; U2OS in Table 9E)", "result": 6.02}, {"measurement": "pIC50", "setting": "Homo sapiens, U-87 MG, U87MG (brain)", "result": 6.21}, {"measurement": "pIC50", "setting": "Homo sapiens, UMUC3, 72 h, UMUC3 (bladder)", "result": 6.01}, {"measurement": "pIC50", "setting": "Homo sapiens, UO-31, 72 h, UO31 (kidney)", "result": 6.38}, {"measurement": "pIC50", "setting": "Homo sapiens, WSU-NHL, WSU-NHL (hematological)", "result": 6.47}, {"measurement": "pIC50", "setting": "NCI-H358M, NCIH358M (lung)", "result": 7.22}, {"measurement": "pIC50", "setting": "PBMC, PBMC (hematological)", "result": 6.82}, {"measurement": "pIC50", "setting": "RD-ES, RDES (bone)", "result": 6.09}]}]}
